The results in this text go back to patent US20250129078A1, “ERBB2 INHIBITORS” (Cogent Biosciences, Inc., priority 2023, published 2025).

SMILES strings stand for the structures. Structures can show the parent of a compound that is named as a salt.

Test [1] concerns the target EGFR WT (Homo sapiens (Human), UniProt P00533). Put plainly: ErbB enzyme assay (CisBio HTRF-KinEASE-TK), EGFR WT. In kind it is biochemical. As to conditions: ATP at Km (25 μM), 1 h incubation. The method, boiled down:
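Three-fold DMSO serial dilutions were added to kinase reactions and incubated 1 h at room temperature. Quench used 62.5 nM Sa-XL665 plus 0.25×TK-Ab-Cryptate in detection buffer, followed by another 1 h. Substrate phosphorylation was then measured by dual-wavelength HTRF.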

The target of test [2] is ErbB2 V777L (Homo sapiens (Human), UniProt P04626, V777L). Put plainly: ErbB enzyme assay (CisBio HTRF-KinEASE-TK), ErbB2 V777L. In kind it is biochemical. The method, boiled down:
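HTRF KinEASE-TK tyrosine-kinase read-out of substrate phosphorylation after a final 1 h at ambient temperature, from the 655/620 nm emission ratio.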

ErbB2 V777L, sequence (P04626 23-1255 V777L): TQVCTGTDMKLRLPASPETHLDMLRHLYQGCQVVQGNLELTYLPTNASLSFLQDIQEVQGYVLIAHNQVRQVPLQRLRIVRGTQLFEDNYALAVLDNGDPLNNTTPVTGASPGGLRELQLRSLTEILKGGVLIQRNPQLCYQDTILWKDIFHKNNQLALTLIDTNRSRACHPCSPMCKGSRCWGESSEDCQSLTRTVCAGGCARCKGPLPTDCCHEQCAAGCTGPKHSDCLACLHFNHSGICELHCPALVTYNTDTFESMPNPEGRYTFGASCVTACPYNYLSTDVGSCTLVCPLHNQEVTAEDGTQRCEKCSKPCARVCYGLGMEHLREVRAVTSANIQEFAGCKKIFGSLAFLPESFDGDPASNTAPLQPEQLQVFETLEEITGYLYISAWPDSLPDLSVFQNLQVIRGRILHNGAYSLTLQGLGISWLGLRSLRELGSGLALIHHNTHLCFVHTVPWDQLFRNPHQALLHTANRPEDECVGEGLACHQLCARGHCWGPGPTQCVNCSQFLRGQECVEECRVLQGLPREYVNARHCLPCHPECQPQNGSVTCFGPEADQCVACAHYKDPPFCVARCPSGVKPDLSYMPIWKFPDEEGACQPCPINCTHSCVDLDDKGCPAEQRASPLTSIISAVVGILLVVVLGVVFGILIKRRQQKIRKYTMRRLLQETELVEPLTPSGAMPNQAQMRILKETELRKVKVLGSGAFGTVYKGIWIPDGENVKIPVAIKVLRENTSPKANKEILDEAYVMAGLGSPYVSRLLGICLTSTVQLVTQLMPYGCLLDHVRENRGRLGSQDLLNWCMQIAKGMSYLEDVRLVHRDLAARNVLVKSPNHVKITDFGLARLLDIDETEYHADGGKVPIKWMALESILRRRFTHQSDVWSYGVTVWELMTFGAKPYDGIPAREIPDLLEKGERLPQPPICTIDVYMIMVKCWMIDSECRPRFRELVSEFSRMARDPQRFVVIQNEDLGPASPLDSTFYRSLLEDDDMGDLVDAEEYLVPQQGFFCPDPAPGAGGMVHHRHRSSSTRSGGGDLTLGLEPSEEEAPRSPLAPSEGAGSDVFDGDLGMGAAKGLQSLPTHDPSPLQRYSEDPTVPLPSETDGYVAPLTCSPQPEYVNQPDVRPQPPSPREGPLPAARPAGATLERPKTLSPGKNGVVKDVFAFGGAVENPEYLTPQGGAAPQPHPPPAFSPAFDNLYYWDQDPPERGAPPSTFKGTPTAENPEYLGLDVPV
EGFR WT, sequence (P00533 25-1210): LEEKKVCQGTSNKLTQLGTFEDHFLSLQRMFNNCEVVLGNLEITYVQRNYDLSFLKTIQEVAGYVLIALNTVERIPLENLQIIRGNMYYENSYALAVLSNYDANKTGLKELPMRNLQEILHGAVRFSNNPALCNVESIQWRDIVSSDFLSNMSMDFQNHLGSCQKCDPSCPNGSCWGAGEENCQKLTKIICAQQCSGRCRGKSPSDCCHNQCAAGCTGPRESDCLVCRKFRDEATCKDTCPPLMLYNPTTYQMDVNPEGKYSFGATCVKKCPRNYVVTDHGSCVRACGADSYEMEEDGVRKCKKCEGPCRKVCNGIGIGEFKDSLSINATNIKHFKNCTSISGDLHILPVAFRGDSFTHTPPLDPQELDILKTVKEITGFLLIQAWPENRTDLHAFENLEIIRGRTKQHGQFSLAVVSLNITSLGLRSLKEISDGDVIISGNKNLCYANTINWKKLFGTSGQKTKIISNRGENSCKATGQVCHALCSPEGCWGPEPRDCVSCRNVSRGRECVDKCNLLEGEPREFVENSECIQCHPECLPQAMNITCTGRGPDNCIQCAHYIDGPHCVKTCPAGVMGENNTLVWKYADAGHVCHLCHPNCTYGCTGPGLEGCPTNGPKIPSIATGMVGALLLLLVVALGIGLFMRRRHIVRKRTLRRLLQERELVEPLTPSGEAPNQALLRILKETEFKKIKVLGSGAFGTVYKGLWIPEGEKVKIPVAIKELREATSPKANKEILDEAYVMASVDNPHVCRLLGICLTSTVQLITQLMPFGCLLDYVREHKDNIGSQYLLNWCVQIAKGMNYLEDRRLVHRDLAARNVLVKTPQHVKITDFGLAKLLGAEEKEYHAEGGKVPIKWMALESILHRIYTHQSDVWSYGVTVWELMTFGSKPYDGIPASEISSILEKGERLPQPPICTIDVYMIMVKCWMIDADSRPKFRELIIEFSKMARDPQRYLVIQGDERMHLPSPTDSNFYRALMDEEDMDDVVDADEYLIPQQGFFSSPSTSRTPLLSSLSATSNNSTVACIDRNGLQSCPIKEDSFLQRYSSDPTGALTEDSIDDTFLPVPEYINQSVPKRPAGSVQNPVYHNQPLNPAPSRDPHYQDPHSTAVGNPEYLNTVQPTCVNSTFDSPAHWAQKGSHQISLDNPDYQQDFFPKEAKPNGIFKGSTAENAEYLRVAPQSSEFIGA

On to `C=CC(=O)N1C2C=C(c3ccc4ncnc(Nc5ccc(Oc6ccc7c(c6)nnn7C)c(C)c5)c4n3)CC1CC2` (stereo not drawn) [Compound 409, 1-(3-(4-((3-methyl-4-((1-methyl-1H-benzo[d][1,2,3]triazol-5-yl)oxy)phenyl)amino)pyrido[3,2-d]pyrimidin-6-yl)-8-azabicyclo[3.2.1]oct-2-en-8-yl)prop-2-en-1-one trifluoroacetate], for which the results for the IC50 in test [1] and in test [2] were 100 to 500 nM and 50 to 100 nM, respectively.
On the same counts, the results for `C=CC(=O)N1CCN(c2ncc3ncnc(Nc4cc(C)c(Oc5cc(F)c6c(c5)nnn6C)cc4OC)c3n2)C[C@H]1C` [Compound 164, (R)-1-(4-(8-((4-((7-fluoro-1-methyl-1H-benzo[d][1,2,3]triazol-5-yl)oxy)-2-methoxy-5-methylphenyl)amino)pyrimido[5,4-d]pyrimidin-2-y1)-2-methylpiperazin-1-yl)prop-2-en-1-one] are 500 to 1000 nM and 500 to 1000 nM.
For `C=CC(=O)N1C2CCC1CN(c1ncc3ncnc(Nc4cc(C)c(Oc5ccc6c(c5)ncn6C(F)F)cc4OC)c3n1)C2` [Compound 40, 1-(3-(8-((4-((1-(difluoromethyl)-1H-benzo[d]imidazol-5-yl)oxy)-2-methoxy-5-methylphenyl)amino)pyrimido[5,4-d]pyrimidin-2-yl)-3,8-diazabicyclo[3.2.1]octan-8-yl)prop-2-en-1-one 2,2,2-trifluoroacetate], in that order: 500 to 1000 nM and 100 to 500 nM.
For `C=CC(=O)N1CCN(c2ncc3ncnc(Nc4ccc(Oc5ccc6c(c5)nnn6C)c(C)c4)c3n2)[C@H](C)C1` [Compound 17, (R)-1-(3-methyl-4-(8-((3-methyl-4-((1-methyl-1H-benzo[d][1,2,3]triazol-5-yl)oxy)phenyl)amino)pyrimido[5,4-d]pyrimidin-2-yl)piperazin-1-yl)prop-2-en-1-one], the IC50 in test [1] fell in the range of 500 to 1000 nM; in test [2], 100 to 500 nM.
For `C=CC(=O)N[C@@H]1CCCCN(c2ccc3ncnc(Nc4ccc(Oc5ccc6c(c5)nnn6C)c(C)c4F)c3n2)C1` [Compound 289, (R)-N-(1-(4-((2-fluoro-3-methyl-4-((1-methyl-1H-benzo[d][1,2,3]triazol-5-yl)oxy)phenyl)amino)pyrido[3,2-d]pyrimidin-6-yl)azepan-3-yl)acrylamide], in that order: 100 to 500 nM and 500 to 1000 nM.
Regarding `C=CC(=O)N[C@@H]1C[C@@H](F)CN(c2ccc3ncnc(Nc4ccc(Oc5ccc6c(c5)nnn6C)c(C)c4F)c3n2)C1` [Compound 295, N-((3R,5R)-5-fluoro-1-(4-((2-fluoro-3-methyl-4-((1-methyl-1H-benzo[d][1,2,3]triazol-5-yl)oxy)phenyl)amino)pyrido[3,2-d]pyrimidin-6-yl)piperidin-3-yl)acrylamide], the IC50 in test [1] and in test [2] was 100 to 500 nM throughout.
In the case of `C=CC(=O)N1CCN(c2ccc3ncnc(Nc4ccc(Oc5ccc6c(c5)nnn6C)c(C)c4)c3n2)CC[C@H]1C` [Compound 356, (R)-1-(7-methyl-4-(4-((3-methyl-4-((1-methyl-1H-benzo[d][1,2,3]triazol-5-yl)oxy)phenyl)amino)pyrido[3,2-d]pyrimidin-6-yl)-1,4-diazepan-1-yl)prop-2-en-1-one], the IC50 in test [1] is not below 1000 nM; in test [2] it was 500 to 1000 nM.
For `C=CC(=O)N1CCC(c2ccc3ncnc(Nc4ccc(Oc5ccc6c(c5)nnn6C)c(C)c4)c3n2)CC1` [Compound 108, 1-(4-(4-((3-methyl-4-((1-methyl-1H-benzo[d][1,2,3]triazol-5-yl)oxy)phenyl)amino)pyrido[3,2-d]pyrimidin-6-yl)piperidin-1-yl)prop-2-en-1-one], in that order: 100 to 500 nM and 100 to 500 nM.
On the same counts, the results for `Cc1c(Oc2ccc3c(c2)nnn3C)ccc(Nc2ncnc3cnc(N4CCN(C(=O)/C=C/CN5CC(F)C5)CC4)nc23)c1F` [Compound 59, (E)-1-(4-(8-((2-fluoro-3-methyl-4-((1-methyl-1H-benzo[d][1,2,3]triazol-5-yl)oxy)phenyl)amino)pyrimido [5,4-d]pyrimidin-2-yl)piperazin-1-yl)-4-(3-fluoroazetidin-1-yl)but-2-en-1-one] are 100 to 500 nM and 100 to 500 nM.
Regarding `C=CC(=O)N1CCN(c2ncc3ncnc(Nc4ccc(Oc5ccc6c(c5)nnn6C)c(C)c4F)c3c2F)CC1` [Compound 103, 1-(4-(5-fluoro-4-((2-fluoro-3-methyl-4-((1-methyl-1H-benzo[d][1,2,3]triazol-5-yl)oxy)phenyl)amino)pyrido[3,4-d]pyrimidin-6-yl)piperazin-1-yl)prop-2-en-1-one], the IC50 in test [1] and in test [2] was 100 to 500 nM each time.
As to `C=CC(=O)N1CCN(c2ncc3ncnc(Nc4ccc(Oc5ccc6c(nnn6C)c5F)c(C)c4)c3n2)CC1` [Compound 191, 1-(4-(8-((4-((4-fluoro-1-methyl-1H-benzo[d][1,2,3]triazol-5-yl)oxy)-3-methylphenyl)amino)pyrimido[5,4-d]pyrimidin-2-yl)piperazin-1-yl)prop-2-en-1-one], the IC50 in test [1] and in test [2] was 50 to 100 nM in each case.
Consider `C=CC(=O)N1CCN(c2ncc3ncnc(Nc4ccc(Oc5cc6nnn(C)c6c(F)c5C)c(C)c4)c3n2)C[C@H]1C` [Compound 174, (R)-1-(4-(8-((4-((7-fluoro-1,6-dimethyl-1H-benzo[d][1,2,3]triazol-5-yl)oxy)-3-methylphenyl)amino)pyrimido[5,4-d]pyrimidin-2-yl)-2-methylpiperazin-1-yl)prop-2-en-1-one], for which the IC50 in test [1] was not below 1000 nM; in test [2], 100 to 500 nM.
On the same counts, the results for `C=CC(=O)N1CCN(c2ccc3ncnc(Nc4ccc(Oc5ccc6c(c5)nnn6C(F)F)c(C)c4)c3n2)C[C@H]1C` [Compound 320, (R)-1-(4-(4-((4-((1-(difluoromethyl)-1H-benzo[d][1,2,3]triazol-5-yl)oxy)-3-methylphenyl)amino)pyrido[3,2-d]pyrimidin-6-yl)-2-methylpiperazin-1-yl)prop-2-en-1-one] are 100 to 500 nM and 100 to 500 nM.
On to `C=CC(=O)N1CCN(c2ccc3ncnc(Nc4ccc(Oc5ccc6c(c5)nnn6C)c(C)c4)c3n2)C[C@@H]1C1CC1` [Compound 250, (S)-1-(2-cyclopropyl-4-(4-((3-methyl-4-((1-methyl-1H-benzo[d][1,2,3]triazol-5-yl)oxy)phenyl)amino)pyrido[3,2-d]pyrimidin-6-yl)piperazin-1-yl)prop-2-en-1-one], for which the IC50 in test [1] lay within 500 to 1000 nM; in test [2], 100 to 500 nM.
On the same counts, the results for `C=CC(=O)N[C@H]1[C@@H]2CC[C@H]1CN(c1ncc3ncnc(Nc4ccc(Oc5ccc6c(c5)nnn6C)c(C)c4)c3n1)C2` [Compound 205, N-((1R,5S,8r)-3-(8-((3-methyl-4-((1-methyl-1H-benzo[d][1,2,3]triazol-5-yl)oxy)phenyl)amino)pyrimido[5,4-d]pyrimidin-2-yl)-3-azabicyclo[3.2.1]octan-8-yl)acrylamide] are not below 1000 nM and not below 1000 nM.
Take `C=CC(=O)N1CCC12CCN(c1ncc3ncnc(Nc4ccc(Oc5ccc6c(c5)nnn6C)c(C)c4)c3n1)C2` (stereo not drawn) [Compound 222, 1-(6-(8-((3-methyl-4-((1-methyl-1H-benzo[d][1,2,3]triazol-5-yl)oxy)phenyl)amino)pyrimido[5,4-d]pyrimidin-2-yl)-1,6-diazaspiro[3.4]octan-1-yl)prop-2-en-1-one]: the IC50 in test [1] and in test [2] was 50 to 100 nM each time.
Take `C=CC(=O)N1CC[C@H]2CN(c3ncc4ncnc(Nc5ccc(Oc6ccc7c(c6)nnn7C)c(C)c5)c4n3)C[C@H]21` [Compound 149, 1-((3aS,6aS)-5-(8-((3-methyl-4-((1-methyl-1H-benzo[d][1,2,3]triazol-5-yl)oxy)phenyl)amino)pyrimido [5,4-d]pyrimidin-2-yl)hexahydropyrrolo[3,4-b]pyrrol-1(2H)-y1)prop-2-en-1-one]: the IC50 in test [1] fell in the range of 500 to 1000 nM; in test [2], 100 to 500 nM.
For `C=CC(=O)N[C@@H]1CCCN(c2ncc3ncnc(Nc4ccc(Oc5ccc6c(c5)nnn6C)c(C)c4F)c3n2)C1` [Compound 157, (R)-N-(1-(8-((2-fluoro-3-methyl-4-((1-methyl-1H-benzo[d][1,2,3]triazol-5-yl)oxy)phenyl)amino)pyrimido[5,4-d]pyrimidin-2-yl)piperidin-3-yl)acrylamide], in that order: 100 to 500 nM and 50 to 100 nM.
For `C=CC(=O)N1CCN(c2ncc3ncnc(Nc4c(F)cc(Oc5ccc6c(c5)nnn6C)c(F)c4F)c3n2)CC1` [Compound 19, 1-(4-(8-((2,3,6-trifluoro-4-((1-methyl-1H-benzo[d][1,2,3]triazol-5-yl)oxy)phenyl)amino)pyrimido [5,4-d]pyrimidin-2-yl)piperazin-1-yl)prop-2-en-1-one], in that order: 100 to 500 nM and 100 to 500 nM.
As to `C=CC(=O)N1C2CCC1CC(c1ccc3ncnc(Nc4ccc(Oc5ccc6c(c5)nnn6C)c(C)c4)c3n1)C2` (stereo not drawn) [Compound 397, 1-(3-(4-((3-methyl-4-((1-methyl-1H-benzo[d][1,2,3]triazol-5-yl)oxy)phenyl)amino)pyrido[3,2-d]pyrimidin-6-y1)-8-azabicyclo[3.2.1]octan-8-yl)prop-2-en-1-one trifluoroacetate], the IC50 in test [1] lay within 500 to 1000 nM; in test [2] it was 100 to 500 nM.
On the same counts, the results for `C=CC(=O)N1CCN(c2ccc3ncnc(Nc4ccc(Oc5ccc6c(c5)nnn6C)c(C)c4F)c3n2)C[C@@H]1C1CC1` [Compound 271, (S)-1-(2-cyclopropyl-4-(4-((2-fluoro-3-methyl-4-((1-methyl-1H-benzo[d][1,2,3]triazol-5-yl)oxy)phenyl)amino)pyrido[3,2-d]pyrimidin-6-yl)piperazin-1-yl)prop-2-en-1-one] are not below 1000 nM and 500 to 1000 nM.
